Assays:
[1] = (§1) The drug is tested on Z-017 corresponding to mouse gut metagenome with ENA study accession number: PRJEB37062 and ENA sample accession number: ERS12561816 for biotransformation under anaerobic condition. The drug concentrations were measured over 9 timepoints collected between 0 and 24 hours of incubation by liquid-chromatography-coupled mass spectrometry (LC–MS); settings: 2 µM
[2] = as §1, with “Z-016” for “Z-017”, “ERS12561815” for “ERS12561816”; settings: 2 µM
[3] = as §1, with “Z-009” for “Z-017”, “pig” for “mouse”, “ERS12561809” for “ERS12561816”; settings: 2 µM
[4] = as §1, with “Z-008” for “Z-017”, “to” for “to mouse gut”, “ERS12561808” for “ERS12561816”; settings: 2 µM
[5] = as §1, with “WLS-310” for “Z-017”, “human” for “mouse”, “ERS12561785” for “ERS12561816”; settings: 2 µM
[6] = as §1, with “WLS-220” for “Z-017”, “human” for “mouse”, “ERS12561769” for “ERS12561816”; settings: 2 µM
[7] = as §1, with “WLS-090” for “Z-017”, “human” for “mouse”, “ERS12561753” for “ERS12561816”; settings: 2 µM
[8] = as §1, with “WLS-069” for “Z-017”, “human” for “mouse”, “ERS12561748” for “ERS12561816”; settings: 2 µM
[9] = as §1, with “WLS-052” for “Z-017”, “human” for “mouse”, “ERS12561747” for “ERS12561816”; settings: 2 µM
[10] = as §1, with “WLS-039” for “Z-017”, “human” for “mouse”, “ERS12561746” for “ERS12561816”; settings: 2 µM
[11] = human gut metagenome, 24 h, 2 µM
[12] = human gut metagenome, 24 h, 2 µM; remark: listed apart in the source
[13] = human gut metagenome, 24 h, 2 µM; remark: listed apart in the source
[14] = human gut metagenome, 24 h, 2 µM; remark: listed apart in the source
[15] = human gut metagenome, 24 h, 2 µM; remark: listed apart in the source
[16] = human gut metagenome, 24 h, 2 µM; remark: listed apart in the source
[17] = human gut metagenome, 24 h, 2 µM; remark: listed apart in the source
[18] = human gut metagenome, 24 h, 2 µM; remark: listed apart in the source
[19] = as §1, with “Z-023” for “Z-017”, “to” for “to mouse gut”, “ERS12561822” for “ERS12561816”; settings: 2 µM
Also: call rule not given here.

| SMILES | Bacterial Biotransformation [1] | Bacterial Biotransformation [2] | Bacterial Biotransformation [3] | Bacterial Biotransformation [4] | Bacterial Biotransformation [5] | Bacterial Biotransformation [6] | Bacterial Biotransformation [7] | Bacterial Biotransformation [8] | Bacterial Biotransformation [9] | Bacterial Biotransformation [10] | Bacterial Biotransformation [11] | Bacterial Biotransformation [12] | Bacterial Biotransformation [13] | Bacterial Biotransformation [14] | Bacterial Biotransformation [15] | Bacterial Biotransformation [16] | Bacterial Biotransformation [17] | Bacterial Biotransformation [18] | Bacterial Biotransformation [19] |
| --- | --- | --- | --- | --- | --- | --- | --- | --- | --- | --- | --- | --- | --- | --- | --- | --- | --- | --- | --- |
| CCC1(c2ccc(N)cc2)CCC(=O)NC1=O (stereo not drawn) [AMINOGLUTETHIMIDE] | Compound NOT metabolized | Compound NOT metabolized | Compound metabolized | Compound NOT metabolized | Compound NOT metabolized | Compound NOT metabolized | Compound NOT metabolized | Compound NOT metabolized | Compound NOT metabolized | Compound NOT metabolized | Compound NOT metabolized | Compound NOT metabolized | Compound NOT metabolized | Compound NOT metabolized | Compound NOT metabolized | Compound NOT metabolized | Compound NOT metabolized | Compound NOT metabolized |  |
| OC(CCN1CCCCC1)(c1ccccc1)C1CC2C=CC1C2 (stereo not drawn) [BIPERIDEN] |  |  |  |  | Compound metabolized | Compound NOT metabolized | Compound metabolized | Compound NOT metabolized | Compound NOT metabolized | Compound NOT metabolized | Compound NOT metabolized | Compound NOT metabolized | Compound metabolized | Compound metabolized | Compound NOT metabolized | Compound NOT metabolized | Compound NOT metabolized | Compound NOT metabolized |  |
| CN1C(=O)CCS(=O)(=O)C1c1ccc(Cl)cc1 (stereo not drawn) [CHLORMEZANONE] | Compound NOT metabolized | Compound NOT metabolized | Compound NOT metabolized | Compound NOT metabolized | Compound NOT metabolized | Compound NOT metabolized | Compound metabolized | Compound NOT metabolized | Compound NOT metabolized | Compound NOT metabolized | Compound NOT metabolized | Compound NOT metabolized | Compound NOT metabolized | Compound NOT metabolized | Compound NOT metabolized | Compound NOT metabolized | Compound NOT metabolized | Compound metabolized | Compound NOT metabolized |
| CC(=O)O[C@]1(C(C)=O)CC[C@H]2[C@@H]3C=C(Cl)C4=CC(=O)[C@@H]5C[C@@H]5[C@]4(C)[C@H]3CC[C@@]21C [CYPROTERONE ACETATE] |  |  | Compound metabolized |  | Compound metabolized | Compound metabolized | Compound metabolized | Compound metabolized | Compound metabolized | Compound metabolized | Compound metabolized | Compound metabolized | Compound metabolized | Compound metabolized | Compound metabolized | Compound metabolized | Compound metabolized | Compound metabolized | Compound metabolized |
| CN1C[C@H](C(=O)N[C@]2(C)O[C@@]3(O)[C@@H]4CCCN4C(=O)[C@H](Cc4ccccc4)N3C2=O)C=C2c3cccc4[nH]cc(c34)C[C@H]21.CN1C[C@H](C(=O)N[C@]2(C)O[C@@]3(O)[C@@H]4CCCN4C(=O)[C@H](Cc4ccccc4)N3C2=O)C=C2c3cccc4[nH]cc(c34)C[C@H]21.O=C(O)C(O)C(O)C(=O)O [ERGOTAMINE TARTRATE] |  |  |  | Compound NOT metabolized | Compound metabolized |  | Compound metabolized | Compound metabolized | Compound metabolized | Compound metabolized | Compound metabolized | Compound metabolized | Compound metabolized | Compound NOT metabolized | Compound metabolized |  | Compound metabolized | Compound metabolized |  |
| COC(=O)C1=C(C)NC(C)=C(C(=O)OC(C)C)C1c1cccc2nonc12 (stereo not drawn) [ISRADIPINE] |  |  |  |  | Compound metabolized | Compound metabolized | Compound metabolized | Compound metabolized | Compound metabolized |  | Compound metabolized | Compound metabolized | Compound metabolized | Compound metabolized | Compound metabolized | Compound metabolized | Compound metabolized | Compound metabolized |  |
| CN(C(=O)CN(CCO)CC(=O)N(C)C(C)(C)Cc1ccccc1)C(C)(C)Cc1ccccc1 [OXETHAZAINE] |  |  |  |  | Compound metabolized | Compound metabolized | Compound metabolized | Compound metabolized | Compound metabolized | Compound metabolized | Compound metabolized | Compound metabolized | Compound metabolized | Compound metabolized | Compound metabolized | Compound metabolized | Compound metabolized | Compound metabolized |  |
| CN1CCN(CC/C=C2/c3ccccc3Sc3ccc(S(=O)(=O)N(C)C)cc32)CC1 [THIOTHIXENE] |  |  |  |  | Compound metabolized | Compound metabolized | Compound metabolized | Compound metabolized | Compound metabolized | Compound metabolized | Compound metabolized | Compound metabolized | Compound metabolized | Compound NOT metabolized | Compound metabolized | Compound metabolized | Compound metabolized | Compound metabolized |  |
| Cc1ccc(/C(=C\CN2CCCC2)c2ccccn2)cc1 [TRIPROLIDINE] |  | Compound NOT metabolized | Compound NOT metabolized | Compound NOT metabolized | Compound NOT metabolized | Compound NOT metabolized | Compound NOT metabolized | Compound NOT metabolized | Compound NOT metabolized | Compound NOT metabolized | Compound NOT metabolized | Compound NOT metabolized | Compound NOT metabolized | Compound NOT metabolized | Compound NOT metabolized | Compound NOT metabolized | Compound NOT metabolized | Compound NOT metabolized | Compound NOT metabolized |
| CS(=O)(=O)O.O.O.O.O=C1Cc2cc(CCN3CCN(c4nsc5ccccc45)CC3)c(Cl)cc2N1 [ZIPRASIDONE MESYLATE] |  |  |  |  | Compound metabolized | Compound metabolized | Compound metabolized | Compound metabolized | Compound metabolized | Compound metabolized | Compound NOT metabolized | Compound metabolized | Compound NOT metabolized | Compound NOT metabolized | Compound metabolized | Compound metabolized | Compound metabolized | Compound metabolized |  |
